Measurements reported in ChEMBL document CHEMBL4814003, “Novel dual-mode antitumor chlorin-based derivatives as potent photosensitizers and histone deacetylase inhibitors for photodynamic therapy and chemotherapy” (Eur J Med Chem, 2021).
Active and inactive are the calls of the source. The calls are words filed in the database; no cut-off is given here.

Assays:
[1] = Drug uptake in human A549 cells assessed as compound localization in ER at 0.1 uM measured after 24 hrs by ERtracker Green dye based laser confocal microscopy; type: ADME, subcellular, Endoplasmic reticulum; conditions: a549, 24 h
HCT-116 = test: Dark toxicity in human HCT-116 cells assessed as reduction in cell viability incubated under dark for 48 hrs measured after 48 hrs by CCK8 assay; type: functional, cell-based; conditions: HCT-116, 48 h
Histone deacetylase 8 = target: T1, Histone deacetylase 8 (Homo sapiens, UniProt Q9BY41); test: Inhibition of human recombinant HDAC8 using Ac-Leu-Gly-Lys(Ac)-AMC as substrate by measuring fluorescence intensity incubated for 30 mins by microplate reader assay
T1 sequence (Q9BY41 whole entry): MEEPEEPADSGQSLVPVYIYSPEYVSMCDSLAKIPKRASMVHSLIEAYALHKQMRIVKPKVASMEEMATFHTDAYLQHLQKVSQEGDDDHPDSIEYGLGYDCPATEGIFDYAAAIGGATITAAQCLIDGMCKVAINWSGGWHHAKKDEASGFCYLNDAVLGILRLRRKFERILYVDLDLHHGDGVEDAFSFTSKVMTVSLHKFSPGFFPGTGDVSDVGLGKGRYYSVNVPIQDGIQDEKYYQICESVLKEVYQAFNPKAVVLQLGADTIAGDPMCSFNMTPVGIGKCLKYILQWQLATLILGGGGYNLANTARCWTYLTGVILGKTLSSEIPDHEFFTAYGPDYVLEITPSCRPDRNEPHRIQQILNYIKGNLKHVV

[2] = target: T2, Protein deacetylase HDAC6 (Homo sapiens, UniProt Q9UBN7); test: Inhibition of human recombinant HDAC6 using Ac-Leu-Gly-Lys(Ac)-AMC as substrate by measuring fluorescence intensity incubated for 30 mins by microplate reader assay
T2 sequence (Q9UBN7 whole entry): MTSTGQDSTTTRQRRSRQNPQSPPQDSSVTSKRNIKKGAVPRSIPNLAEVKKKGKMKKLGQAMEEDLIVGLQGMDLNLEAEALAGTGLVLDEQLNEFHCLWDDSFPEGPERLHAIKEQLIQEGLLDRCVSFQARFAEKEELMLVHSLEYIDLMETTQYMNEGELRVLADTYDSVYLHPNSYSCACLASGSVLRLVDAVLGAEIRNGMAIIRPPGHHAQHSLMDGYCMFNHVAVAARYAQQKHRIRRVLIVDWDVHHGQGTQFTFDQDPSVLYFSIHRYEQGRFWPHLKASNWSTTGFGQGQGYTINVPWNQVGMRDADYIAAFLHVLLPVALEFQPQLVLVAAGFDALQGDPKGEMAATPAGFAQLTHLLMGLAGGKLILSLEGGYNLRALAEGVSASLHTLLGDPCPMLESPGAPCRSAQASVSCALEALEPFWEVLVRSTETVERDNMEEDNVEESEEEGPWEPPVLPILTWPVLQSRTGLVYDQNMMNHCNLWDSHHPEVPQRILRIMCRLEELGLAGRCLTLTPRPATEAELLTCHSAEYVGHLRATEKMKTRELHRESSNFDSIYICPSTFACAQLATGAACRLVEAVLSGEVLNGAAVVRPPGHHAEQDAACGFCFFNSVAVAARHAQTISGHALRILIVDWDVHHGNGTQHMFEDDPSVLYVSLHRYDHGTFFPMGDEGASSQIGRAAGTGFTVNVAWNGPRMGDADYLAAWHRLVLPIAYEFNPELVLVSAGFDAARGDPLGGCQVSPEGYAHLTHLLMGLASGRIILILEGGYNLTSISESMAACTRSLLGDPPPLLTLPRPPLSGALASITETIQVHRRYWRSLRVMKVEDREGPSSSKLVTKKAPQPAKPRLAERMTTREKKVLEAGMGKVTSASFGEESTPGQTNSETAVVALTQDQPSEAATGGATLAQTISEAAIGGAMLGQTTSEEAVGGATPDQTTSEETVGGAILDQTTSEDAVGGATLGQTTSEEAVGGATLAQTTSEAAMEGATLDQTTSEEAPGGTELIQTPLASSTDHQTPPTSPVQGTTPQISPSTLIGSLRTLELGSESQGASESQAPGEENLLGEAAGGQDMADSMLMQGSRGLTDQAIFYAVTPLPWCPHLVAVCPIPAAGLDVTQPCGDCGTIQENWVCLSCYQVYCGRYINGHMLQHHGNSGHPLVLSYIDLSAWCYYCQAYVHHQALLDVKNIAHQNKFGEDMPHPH

[3] = Drug uptake in human A549 cells assessed as compound localization in nucleus at 0.1 uM measured after 24 hrs by laser confocal microscopy; type: ADME, subcellular; conditions: a549, 24 h
A549 [4] = test: Induction of apoptosis in human A549 cells assessed as apoptotic cells at 0.1 uM in presence of light irradiation incubated for 48 hrs by annexin V-FITC staining based flow cytometry; type: functional
A549 [5] = test: Induction of reactive oxygen species generation in human A549 cells assessed as mean count value at 0.05 uM incubated for 24 hrs by DCFH-DA staining based fluorescence microscopy assay; type: functional
A549 [6] = test: Phototoxicity in human A549 cells assessed as reduction in cell viability irradiated 10 j/cm2 for 24 hrs followed by incubated for 24 hrs by CCK8 assay; type: functional, cell-based; conditions: A549, light or radiation study
A549 [7] = test: Induction of apoptosis in human A549 cells assessed as apoptotic cells at 0.5 uM in absence of light irradiation incubated for 48 hrs by annexin V-FITC staining based flow cytometry; type: functional
Histone deacetylase 1 [8] = target: T3, Histone deacetylase 1 (Homo sapiens, UniProt Q13547); test: Inhibition of human recombinant HDAC1 in human A 549 cells assessed as effect on acetyl-H3 expression upto 2 uM measured after 24 hrs by western blot analysis; type: cell-based; conditions: A549, dose microM <=2, time 24.0 hrs
T3 sequence (Q13547 whole entry): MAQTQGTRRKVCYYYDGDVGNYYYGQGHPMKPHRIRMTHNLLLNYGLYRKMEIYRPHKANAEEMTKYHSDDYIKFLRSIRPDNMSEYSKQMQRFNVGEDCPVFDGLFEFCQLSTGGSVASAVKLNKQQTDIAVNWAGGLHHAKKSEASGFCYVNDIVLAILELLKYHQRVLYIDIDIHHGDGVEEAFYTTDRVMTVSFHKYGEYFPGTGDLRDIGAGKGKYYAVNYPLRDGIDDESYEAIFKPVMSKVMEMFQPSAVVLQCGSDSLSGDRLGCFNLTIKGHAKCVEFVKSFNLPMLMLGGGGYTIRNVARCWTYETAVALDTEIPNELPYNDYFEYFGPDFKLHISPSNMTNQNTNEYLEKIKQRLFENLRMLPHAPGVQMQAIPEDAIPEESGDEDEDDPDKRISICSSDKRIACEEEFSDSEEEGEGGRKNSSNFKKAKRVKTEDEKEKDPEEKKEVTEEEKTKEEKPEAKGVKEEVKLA

Histone deacetylase 2 = Histone deacetylase 2 (Homo sapiens, UniProt Q92769); test: Inhibition of human recombinant HDAC2 using Ac-Leu-Gly-Lys(Ac)-AMC as substrate by measuring fluorescence intensity incubated for 30 mins by microplate reader assay
Sequence of Histone deacetylase 2 (Q92769 whole entry): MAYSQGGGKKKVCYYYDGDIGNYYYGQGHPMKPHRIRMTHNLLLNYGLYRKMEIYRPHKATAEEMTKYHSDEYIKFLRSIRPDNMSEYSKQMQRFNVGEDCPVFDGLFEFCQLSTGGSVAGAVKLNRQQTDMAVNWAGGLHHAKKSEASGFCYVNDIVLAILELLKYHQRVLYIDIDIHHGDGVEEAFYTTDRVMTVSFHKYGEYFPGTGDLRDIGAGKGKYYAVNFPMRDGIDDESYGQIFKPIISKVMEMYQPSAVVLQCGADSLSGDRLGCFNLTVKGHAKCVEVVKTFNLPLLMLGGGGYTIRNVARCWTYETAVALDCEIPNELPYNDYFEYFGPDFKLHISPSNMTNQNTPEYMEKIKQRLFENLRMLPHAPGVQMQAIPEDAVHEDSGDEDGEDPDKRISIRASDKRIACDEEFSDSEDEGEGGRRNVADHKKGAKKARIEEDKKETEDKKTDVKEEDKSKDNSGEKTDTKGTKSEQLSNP

A549 [9] = test: Induction of autophagy in human A549 cells irradiated 10 j/cm2 at 0.1 uM after 24 hrs using fluorescent molecule DAPRed; type: functional
Histone deacetylase 3 = Histone deacetylase 3 (Homo sapiens, UniProt O15379); test: Inhibition of human recombinant HDAC3 using Ac-Leu-Gly-Lys(Ac)-AMC as substrate by measuring fluorescence intensity incubated for 30 mins by microplate reader assay
Sequence of Histone deacetylase 3 (O15379 whole entry): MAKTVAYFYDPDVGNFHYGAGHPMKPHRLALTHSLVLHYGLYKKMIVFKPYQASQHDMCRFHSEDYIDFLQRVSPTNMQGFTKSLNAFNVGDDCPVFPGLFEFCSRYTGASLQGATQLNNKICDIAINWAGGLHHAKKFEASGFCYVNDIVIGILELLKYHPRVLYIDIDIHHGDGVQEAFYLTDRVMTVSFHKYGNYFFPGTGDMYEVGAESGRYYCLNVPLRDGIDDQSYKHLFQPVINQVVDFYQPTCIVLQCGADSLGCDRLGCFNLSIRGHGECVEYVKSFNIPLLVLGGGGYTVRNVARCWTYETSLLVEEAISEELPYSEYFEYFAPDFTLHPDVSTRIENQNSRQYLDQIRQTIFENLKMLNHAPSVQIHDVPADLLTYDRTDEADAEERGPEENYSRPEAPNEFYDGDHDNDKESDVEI

Histone deacetylase 1 [10] = target: T3, Histone deacetylase 1; test: Inhibition of human recombinant HDAC1 in human A 549 cells assessed as effect on acetyl-H4 expression measured after 24 hrs by western blot analysis; type: cell-based; conditions: A549, dose microM <=2, time 24.0 hrs
A549 [11] = test: Induction of apoptosis in human A549 cells assessed as necrotic cells at 0.5 uM in absence of light irradiation incubated for 48 hrs by annexin V-FITC staining based flow cytometry; type: functional
Histone deacetylase 1 [12] = target: T3, Histone deacetylase 1; test: Inhibition of human recombinant HDAC1 using Ac-Leu-Gly-Lys(Ac)-AMC as substrate by measuring fluorescence intensity incubated for 30 mins by microplate reader assay

Drug uptake [1]: Active
IC50 (Histone deacetylase 8): > 100 µM
IC50 [2]: > 100 µM
Drug uptake [3]: Not Active
inhibition (Histone deacetylase 1 [8]): inactive
IC50 (Histone deacetylase 2): 2.65 µM
IC50 (Histone deacetylase 3): 72.1 µM
inhibition (Histone deacetylase 1 [10]): Dose-Dependent Effect
IC50 (Histone deacetylase 1 [12]): 27 µM
Compound: C=Cc1c(C)c2cc3nc(c(C(=O)OC)c4[nH]c(cc5nc(cc1[nH]2)C(C)=C5CC)c(C)c4C(=O)OC)[C@@H](CCC(=O)Nc1ccc(C(=O)Nc2ccccc2N)cc1)[C@@H]3C
IC50 (HCT-116): 2.79 µM
Activity (A549 [4]): 90.77%
Activity (A549 [5]): 1760.9
IC50 (A549 [6]): 0.06 µM
Activity (A549 [7]): 54.74%
Activity (A549 [9]): Active
Activity (A549 [11]): 45.22%
